Measured values reported in US10920265B2, “Compounds and methods for detection of enzymes that remove methyl succinyl groups from epsilon-amino lysine moieties” (Enzo Life Sciences, Inc., priority 2011, dated 2021).
*: point of attachment. AMC = Cc1cc(=O)oc2cc(N*)ccc12

How the values were obtained:
[1] = tested on: HeLa cell extracts; experiment: HeLa cell extract Ac-Lys(ε-succinyl)-AMC desuccinylation activity; format: biochemical, human; conditions: 50 μM Ac-Lys(Succ.)-AMC, +NAD^+ 500 μM; TSA 1 μM, suramin 200 μM
Description: (§1) Enzyme and extract catalog products obtained from ENZO Life Sciences included: HDAC1 (Cat. # BML-SE456), HDAC2 (Cat. # BML-SE500), HDAC3 (Cat. # BML-SE507), HDAC3/NCOR1 Complex (Cat. # BML-SE515), HDAC6 (Cat. # BML-SE508), HDAC8 (Cat. # BML-SE145), HDAC10 (Cat. # BML-SE559), HDAC11 (Cat. # BML-SE560), SIRT1 (Cat. # BML-SE239), SIRT2 (Cat. # BML-SE251), SIRT3 (Cat. # BML-SE270), SIRT5 (Cat. # BML-SE555), HeLa Nuclear Extract (Cat. # BML-KI140), Trypsin (“Fluor de Lys Developer”, 80 mg/ml bovine trypsin in 1 mM HCl, Cat. # BML-KI105 or “Fluor de Lys Developer II”, 80 mg/ml bovine trypsin in 1 mM HCl, Cat. # BML-KI176). […] Enzymes obtained from BPS Bioscience, San Diego, Calif. included: human recombinants SIRT4 (Cat. #50015), SIRT6 (Cat. #50017), SIRT7 (Cat. #50018). HeLa whole cell extract was obtained from HeLa S3 cells (American Type Culture Collection) grown in a medium of MEM/10% fetal bovine serum (FBS) as follows: 1) 9×10^6 cells were suspended by trypsinization, followed by a phosphate buffered saline (PBS) rinse and addition of MEM/10% FBS (1.5 mL) to eliminate trypsin before transfer to a 15 mL conical tube; 2) cells were sedimented by a low speed centrifugation, gently resuspended in PBS and sedimented again and supernatant removed; 3) lysis was induced by resuspension in 0.8 mL 50 mM Tris/HCl, pH 8.0 with the non-denaturing detergent NP-40 (0.5%), placement on ice and brief vortexing every 5 min. for 30 min.; 4) 100 μl of a concentrated salt solution in the same buffer was added in order to bring the final buffer composition to 50 mM Tris/C1, pH 8.0, 137 mM NaCl, 2.7 mM KCl, 1 mM MgCl2, 0.5% NP-40; 5) particulate matter was cleared by centrifugation and the cleared lysate supernatant transferred to a 1.5 mL Eppendorf tube and stored on ice until use in activity assays.
Assays were performed at 37° C., according to the manufacturer's instructions for the “SIRT1 Fluorometric Drug Discovery Kit” from Enzo Life Sciences (ELS) (Cat. # BML-AK555), with exceptions described as follows. […]

[2] = biological target: T1, SIRT5 (Homo sapiens, UniProt Q9NXA8); experiment: Inhibition of SIRT5 desuccinylation of Ac-Lys(Succ.)-AMC; format: biochemical; set-up: purchased Enzo Life Sciences BML-SE555; conditions: three parameter Hill-Slope model, bottom fixed at 0
T1 sequence (Q9NXA8 37-310): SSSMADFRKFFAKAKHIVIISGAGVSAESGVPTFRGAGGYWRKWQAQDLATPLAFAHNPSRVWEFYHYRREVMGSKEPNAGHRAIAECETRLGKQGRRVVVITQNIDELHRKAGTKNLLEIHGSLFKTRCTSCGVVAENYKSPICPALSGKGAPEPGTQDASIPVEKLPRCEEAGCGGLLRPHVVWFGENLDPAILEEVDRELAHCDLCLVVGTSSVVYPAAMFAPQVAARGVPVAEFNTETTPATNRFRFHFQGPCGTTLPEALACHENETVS
From the text: Signal development (trypsin treatment) and fluorescence readings were done as described, as were the conversion of fluorescence increases to rates in units of pmol/min/μg (FIG. 5). Data points represent the mean of three determinations and the error bars are the standard deviations from those means. The dose-response curve was derived from a least-squares fit to a three parameter Hill-Slope model (bottom fixed at 0 pmol/min/μg), y=top/(1+(x/IC50)^slope).
Data points represent the mean of three determinations and the error bars are the standard deviations from those means. The dose-response curve was derived from a least-squares fit to a three parameter Hill-Slope model (bottom fixed at 0 pmol/min/μg), y=top/(1+(x/IC50)^slope).
(§2) Assays were performed at 37° C., according to the manufacturer's instructions for the “SIRT1 Fluorometric Drug Discovery Kit” from Enzo Life Sciences (ELS) (Cat. # BML-AK555), with exceptions described as follows. Where indicated in figures and text, SIRT1 enzyme was replaced with another enzyme or extract and the “Fluor de Lys-SIRT1 Substrate” (Ac-Arg-His-Lys-Lys(Ac)-AMC; ELS Cat. # BML-KI-177) was replaced with another acetylated, succinylated or trifluoroacetylated substrate.

[3] = tested on: HeLa cells; experiment: Intact HeLa cell desuccinylation/deacetylation assay; format: cell-based, human; conditions: 200 μM Ac-Lys(Ac.)-AMC, four hours, TSA 1 μM
Description: HeLa cells were cultured to 95% confluence in the wells of ½-volume 96-well plates. […] After the indicated time, cells were lysed with detergent and trypsin added to release AMC from desuccinylated or deacetylated substrate and then fluorescence read (Ex.360 nm/Em. 460 nm). For “0 hr.” samples, substrate, inhibitors, lysis buffer and trypsin were added simultaneously. Bars represent the mean of three determinations and the error bars the Standard Deviation from that mean. Statistically significant differences between the fluorescences of “4 hr.” and “0 hr.” samples (Student's t-test) are indicated by asterisks as follows: *,p<0.02; **, p<0.002.
An assay employing Ac-Lys(Ac.)-AMC to measure the HDAC and sirtuin deacetylase activity of intact cultured cells has been described (Howitz, K. T. et al. Nature 425, 191-196 (2003); Product Manual of Enzo Life Sciences Cat. # BML-AK-503, “HDAC Fluorimetric Cellular Activity Assay Kit”, Appendix F). Ac-Lys(Ac)-AMC is added to the culture medium, enters the cells and is deacetylated by HDACs and sirtuins in their native intracellular context. Measurement of the amount of Ac-Lys-AMC produced by intracellular deacetylation is then accomplished by detergent lysis of the cells and release of the AMC fluorophore by trypsin. We therefore investigated whether Ac-Lys(Succ.)-AMC could be used to measure intracellular desuccinylation activity, in a similar fashion, with cultured HeLa cells. […] These latter, deacetylation results are consistent with previous observations made with this assay system (see Howitz, K. T. et al. Nature 425, 191-196 (2003) and Appendix F).
Assays (FIG. 10) were performed according to the manufacturer's instructions for the ““HDAC Fluorometric Cellular Activity Assay Kit” (ELS Cat. # BML-AK503), with exceptions described as follows. Where indicated the “Fluor de Lys Substrate” (Ac-Lys(Ac.)-AMC; ELS Cat. # BML-KI104) was replaced with Ac-Lys(Succ.)-AMC (1).

[4] = biological target: T2, SIRT2 (Homo sapiens, UniProt Q8IXJ6); experiment: Sirtuin activity with fluorogenic lysyl substrates; format: biochemical; conditions: 50 μM substrate, 500 μM NAD^+
T2 sequence (Q8IXJ6 1-389): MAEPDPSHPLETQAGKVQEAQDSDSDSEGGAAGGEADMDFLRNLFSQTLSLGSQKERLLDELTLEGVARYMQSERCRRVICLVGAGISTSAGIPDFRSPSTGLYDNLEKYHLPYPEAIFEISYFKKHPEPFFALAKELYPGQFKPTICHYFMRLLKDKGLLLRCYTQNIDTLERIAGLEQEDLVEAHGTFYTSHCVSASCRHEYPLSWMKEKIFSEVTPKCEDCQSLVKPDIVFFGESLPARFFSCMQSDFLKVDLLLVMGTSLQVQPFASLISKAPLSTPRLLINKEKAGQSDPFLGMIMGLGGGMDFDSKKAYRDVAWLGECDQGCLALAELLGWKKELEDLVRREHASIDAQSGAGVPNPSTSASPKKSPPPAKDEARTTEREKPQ
Description: (§3) The Ac-Lys(Succ.)-AMC substrate was tested for activity with recombinant preparations of human HDACs 1-11, SIRTs 1-4, 6 and 7, a complex of HDAC3 with a fragment of the activating protein NCOR1 and with HeLa nuclear extract, a rich source of active HDACs in their native multiprotein complexes.
as §1, §2

[5] = biological target: T3, SIRT3 (Homo sapiens, UniProt Q9NTG7); experiment: Sirtuin activity with fluorogenic lysyl substrates; format: biochemical; conditions: 50 μM substrate, 500 μM NAD^+
T3 construct: purchased ENZO Life Sciences BML-SE270
T3 sequence (Q9NTG7 1-399): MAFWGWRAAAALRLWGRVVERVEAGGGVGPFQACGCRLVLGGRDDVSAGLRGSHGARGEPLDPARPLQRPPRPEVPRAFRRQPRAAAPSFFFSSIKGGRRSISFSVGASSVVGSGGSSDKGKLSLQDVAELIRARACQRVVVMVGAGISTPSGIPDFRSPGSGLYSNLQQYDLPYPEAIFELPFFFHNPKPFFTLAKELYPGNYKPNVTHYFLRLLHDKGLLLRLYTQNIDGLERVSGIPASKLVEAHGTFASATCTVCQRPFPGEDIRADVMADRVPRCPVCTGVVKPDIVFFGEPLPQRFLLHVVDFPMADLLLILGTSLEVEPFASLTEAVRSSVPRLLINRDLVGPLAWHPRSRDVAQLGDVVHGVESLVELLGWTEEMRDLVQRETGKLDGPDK
Description: as §3, §1, §2

[6] = biological target: T4, HDAC5 (Homo sapiens, UniProt Q9UQL6); experiment: HDAC activity with fluorogenic lysyl substrates; format: biochemical; conditions: 50 μM substrate
T4 construct: made in house; host or cells: E. coli
T4 sequence (Q9UQL6 656-1122): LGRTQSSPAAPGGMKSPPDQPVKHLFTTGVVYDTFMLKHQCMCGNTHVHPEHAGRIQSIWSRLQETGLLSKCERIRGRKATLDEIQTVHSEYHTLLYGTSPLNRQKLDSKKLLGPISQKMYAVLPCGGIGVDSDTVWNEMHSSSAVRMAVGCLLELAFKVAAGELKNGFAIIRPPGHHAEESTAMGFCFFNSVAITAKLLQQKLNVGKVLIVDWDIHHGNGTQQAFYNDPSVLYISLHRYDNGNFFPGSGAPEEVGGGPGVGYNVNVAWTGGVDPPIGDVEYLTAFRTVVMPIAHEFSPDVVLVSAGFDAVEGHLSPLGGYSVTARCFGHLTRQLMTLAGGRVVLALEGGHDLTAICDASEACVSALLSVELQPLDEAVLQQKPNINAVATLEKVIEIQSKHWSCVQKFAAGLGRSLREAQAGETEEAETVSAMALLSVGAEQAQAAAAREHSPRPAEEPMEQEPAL
Description: as §3, §1, §2

[7] = biological target: T5, HDAC7 (Homo sapiens, UniProt Q8WUI4); experiment: HDAC activity with fluorogenic lysyl substrates; format: biochemical; conditions: 50 μM substrate
T5 construct: made in house; host or cells: E. coli
T5 sequence (Q8WUI4 483-903): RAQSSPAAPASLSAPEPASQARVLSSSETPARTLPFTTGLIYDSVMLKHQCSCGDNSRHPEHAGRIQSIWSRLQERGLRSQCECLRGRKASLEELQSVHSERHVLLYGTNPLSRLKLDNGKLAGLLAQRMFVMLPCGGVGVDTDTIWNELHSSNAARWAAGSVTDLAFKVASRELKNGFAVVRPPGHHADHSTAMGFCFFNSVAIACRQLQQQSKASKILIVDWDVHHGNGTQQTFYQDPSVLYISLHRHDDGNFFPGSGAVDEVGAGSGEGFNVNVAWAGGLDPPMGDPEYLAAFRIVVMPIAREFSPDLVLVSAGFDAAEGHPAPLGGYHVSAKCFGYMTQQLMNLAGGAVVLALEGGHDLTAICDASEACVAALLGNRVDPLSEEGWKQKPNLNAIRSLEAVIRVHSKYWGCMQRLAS
Description: as §3, §1, §2

[8] = biological target: T6, HDAC9 (Homo sapiens, UniProt Q9UKV0); experiment: HDAC activity with fluorogenic lysyl substrates; format: biochemical; conditions: 50 μM substrate
T6 construct: made in house; host or cells: E. coli
T6 sequence (Q9UKV0 644-1066 isoform Q9UKV0-5): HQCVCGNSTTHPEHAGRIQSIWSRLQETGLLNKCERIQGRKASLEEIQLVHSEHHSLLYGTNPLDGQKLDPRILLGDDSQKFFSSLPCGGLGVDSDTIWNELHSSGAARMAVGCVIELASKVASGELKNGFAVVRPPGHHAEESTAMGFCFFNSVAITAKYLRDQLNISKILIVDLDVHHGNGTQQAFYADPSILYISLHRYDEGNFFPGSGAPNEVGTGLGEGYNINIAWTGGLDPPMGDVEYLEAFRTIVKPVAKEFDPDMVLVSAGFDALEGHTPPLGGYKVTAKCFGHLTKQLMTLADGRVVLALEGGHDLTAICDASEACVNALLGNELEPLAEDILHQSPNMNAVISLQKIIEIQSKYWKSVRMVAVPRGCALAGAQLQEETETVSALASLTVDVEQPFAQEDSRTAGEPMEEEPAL
Description: as §3, §1, §2

[9] = tested on: HDAC4; experiment: HDAC activity with fluorogenic lysyl substrates; format: biochemical, human; conditions: 50 μM substrate
Sequence of HDAC4 (P56524 626-1084 limits assumed): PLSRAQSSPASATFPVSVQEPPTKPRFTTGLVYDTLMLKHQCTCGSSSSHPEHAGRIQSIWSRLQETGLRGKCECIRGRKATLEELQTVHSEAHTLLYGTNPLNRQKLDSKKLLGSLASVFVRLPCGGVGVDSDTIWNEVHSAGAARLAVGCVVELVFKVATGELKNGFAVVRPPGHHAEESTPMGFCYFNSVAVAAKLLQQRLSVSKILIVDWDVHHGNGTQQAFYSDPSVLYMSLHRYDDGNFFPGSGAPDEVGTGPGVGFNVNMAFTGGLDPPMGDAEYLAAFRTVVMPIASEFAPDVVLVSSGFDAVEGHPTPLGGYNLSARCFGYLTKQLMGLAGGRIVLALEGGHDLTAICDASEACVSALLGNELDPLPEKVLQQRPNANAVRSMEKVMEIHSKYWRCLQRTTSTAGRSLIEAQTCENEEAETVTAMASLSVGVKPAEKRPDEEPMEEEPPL
Description: as §3
Enzyme and extract catalog products obtained from ENZO Life Sciences included: HDAC1 (Cat. # BML-SE456), HDAC2 (Cat. # BML-SE500), HDAC3 (Cat. # BML-SE507), HDAC3/NCOR1 Complex (Cat. # BML-SE515), HDAC6 (Cat. # BML-SE508), HDAC8 (Cat. # BML-SE145), HDAC10 (Cat. # BML-SE559), HDAC11 (Cat. # BML-SE560), SIRT1 (Cat. # BML-SE239), SIRT2 (Cat. # BML-SE251), SIRT3 (Cat. # BML-SE270), SIRT5 (Cat. # BML-SE555), HeLa Nuclear Extract (Cat. # BML-KI140), Trypsin (“Fluor de Lys Developer”, 80 mg/ml bovine trypsin in 1 mM HCl, Cat. # BML-KI105 or “Fluor de Lys Developer II”, 80 mg/ml bovine trypsin in 1 mM HCl, Cat. # BML-KI176). […] Enzymes obtained from BPS Bioscience, San Diego, Calif. included: human recombinants SIRT4 (Cat. #50015), SIRT6 (Cat. #50017), SIRT7 (Cat. #50018). […]

[10] = biological target: T2, SIRT2; conditions: varied Lysyl, cited from earlier work

## Cc1ccc(C(=O)Nc2ccc(S(=O)(=O)O)c3cc(S(=O)(=O)O)cc(S(=O)(=O)O)c23)cc1NC(=O)c1cccc(NC(=O)Nc2cccc(C(=O)Nc3cc(C(=O)Nc4ccc(S(=O)(=O)O)c5cc(S(=O)(=O)O)cc(S(=O)(=O)O)c45)ccc3C)c2)c1 [suramin]
[1]
  Inhibition of the total 2 hr. fluorescence increase: ~50%
[2]
  slope (fitted parameter of dose-response curve): 2.37
  top (fitted parameter of dose-response curve): 127 pmol/min/µg

## CC(/C=C/C(=O)NO)=C\[C@@H](C)C(=O)c1ccc(N(C)C)cc1 [trichostatin A]
[3]
  Fraction of deacetylation sensitive to inhibitor: > 90%
[1]
  Inhibition of the total 2 hr. fluorescence increase: ~50%

## Ac-Gln-Pro-Lys-Lys(Ac)-AMC (Ac-QPKK(Ac)-{AMC}; SMILES CC(=O)NCCCC[C@H](NC(=O)[C@H](CCCCN)NC(=O)[C@@H]1CCCN1C(=O)[C@H](CCC(N)=O)NC(C)=O)C(=O)Nc1ccc2c(C)cc(=O)oc2c1) [Ac-QPKK(Ac)-AMC, reference compound]
[4]
  Activity (pmol/min/μg): Ac-QPKK(Ac)-AMC/18.6 pmol/min/μg
[5]
  Activity (pmol/min/μg): Ac-QPKK(Ac)-AMC/10.8 pmol/min/μg

## Ac-Leu-Gly-Lys(TFAc)-AMC [Ac-LGK(TFAc)-AMC, reference compound]
[6]
  Activity (pmol/min/μg): Ac-LGK(TFAc)-AMC/9960 pmol/min/μg
[7]
  Activity (pmol/min/μg): Ac-LGK(TFAc)-AMC/1670 pmol/min/μg
[8]
  Activity (pmol/min/μg): Ac-LGK(TFAc)-AMC/3330 pmol/min/μg
[9]
  Activity (pmol/min/μg): Ac-LGK(TFAc)-AMC/1390 pmol/min/μg

## Hist. H3 1-20, K9Ac: unlabeled peptide, histone H3 residues 1-20 acetylated on lysine-9
[10]; Borra et al., 2004, read-out: Km (Lysyl substrate)
  Km: 24 µM
[10]; Borra et al., 2004
  kcat: 0.24 s⁻¹
